The text below walks through data of PubChem BioAssay AID463074 (Broad Institute, 2010).

The source made the active and inactive calls.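 Rule for the calls: active = AC50 no more than tenfold above the top dose tested, or full inhibition at every dose with a flat fit (cut at about 19 µM in these data); inconclusive = flat curve fit with inhibition between 30% and 70%, or poor fit; inactive = AC50 more than tenfold above the top dose tested.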

In the assay the test system is HMLE_sh_eGFP viability, CellTiter-Glo luminescence, 72 h. The experiment in a line: cytotoxicity in HMLE control line with eGFP shRNA, dose response, counter-screen for HMLE_sh_ECad selective toxicity project, cell-based, HMLE_sh_eGFP, luminescence (AID 463074).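 Note: counterscreen control line to flag general toxicity for the HMLE_sh_ECad screen; potency for loss of viability as luminescence drops below DMSO wells.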
As for `COc1cc(OC)cc(-c2sc3ccc(OC)cc3c2C#CC2(N)CCCCC2)c1`, the AC50 is 3.23 µM.

Turning to `Cc1cc(SCC(=O)N/N=C/c2ccc(O)cc2O)nc2ccccc12`, the AC50 was 4.75 µM. On to `N#CCSc1nc2c(c(=O)n1Cc1ccco1)C1(CCCC1)Cc1ccccc1-2`, for which the concentration at half-maximal activity (AC50) is 0.468 µM. For the molecule `Cc1cn(-c2cc(C(=O)Nc3ccc(C)c(NC(=O)C(=O)c4c[nH]c5ccccc45)c3)cc(C(F)(F)F)c2)cn1`, the AC50 was 3.5 µM. As for `COc1ccc2cc1Oc1ccc(cc1)C[C@H]1c3c(cc(OC)c4c3Oc3c(ccc5c3[C@H](C2)N(C)CC5)O4)CCN1C`, the figure is 3.63 µM; as for `O=C1/C(=C\c2cccnc2)CN(Cc2ccccc2)C/C1=C\c1cccnc1`, 3.9 µM; as for `CC(C)(C)c1ccc(C(=O)CC(Sc2ccc(Cl)cc2)C(=O)O)cc1` (configuration not stated), 9.07 µM. With `COc1ccc(-c2sc3cc4c(cc3c2C#CC2(N)CCCCC2)OCO4)cc1`, the AC50 was 1.91 µM. As for `N=c1c2c(ncn1Cc1ccco1)Oc1c(ccc3ccccc13)C2c1ccccc1` (configuration not stated), the figure is 3.92 µM; as for `CC(Nc1nc(-c2ccccc2)nc2ccccc12)c1ccccc1` (configuration not stated), 5.38 µM. As for `CC(C)n1cnc2c(NCc3ccccc3)cc(N[C@H](C)CO)cc21`, the AC50 was 7.36 µM. With `CC(C)c1ccccc1OCC(O)CN(CC(O)COc1cccc2ccccc12)C(C)C` (configuration not stated), the AC50 is 3.47 µM.

Turning to `O=c1cc(N2CCCCC2)c(-c2ccccc2)nn1Cc1ccc(Cl)cc1Cl`, the concentration at half-maximal activity (AC50) was 3.96 µM. The value for `O=C(NCCc1c[nH]c2ccccc12)C(=O)c1c[nH]c2ccccc12` was 6.75 µM. On to `CC(=O)OCCCNc1cc(Sc2ccc(Cl)cc2)c2nonc2c1[N+](=O)[O-]`, for which the AC50 is 4.28 µM. As for `O=C(NC1CCCCC1)C(c1cccnc1)N(C(=O)CCl)c1ccc(F)cc1` (configuration not stated), the figure is 3.47 µM; as for `COc1ccc(OC)c(NC(=O)NNC(=O)COc2ccc(-c3ccccc3)cc2)c1`, > 19.5 µM (inactive). The value for `c1ccc(NNC2=NCCCCC2)cc1` was 2.89 µM; that for `Cc1cc(C)cc(N2C(=O)NC(=O)/C(=C/c3cccn3-c3ccc(Cl)cc3)C2=O)c1` was 2.84 µM; that for `CC(NC(=O)c1ccc(N2CCNCC2)c([N+](=O)[O-])c1)C12CC3CC(CC(C3)C1)C2` (configuration not stated) was 6.64 µM.

With `O=C(Nc1ccc(Cn2cccn2)cc1)c1ccc(COc2cccc(Br)c2)cc1`, the AC50 was 0.302 µM. For the molecule `CC(NCC(O)COCCC12CC3CC(CC(C3)C1)C2)c1ccccc1` (configuration not stated), the AC50 was 3.32 µM. On to `O=C(N/N=C/c1cc(Br)ccc1O)C(=O)Nc1ccccc1OC(F)(F)C(F)F`, for which the AC50 was 3.6 µM. The value for `O=C(CNC(=O)C(c1ccccc1)c1ccccc1)N/N=C/c1ccc(O)cc1O` was 1.88 µM; that for `CCNc1nc(NCC)n2c(SC(C(=O)Nc3cc(Cl)cc(Cl)c3)c3ccccc3)nnc2n1` (configuration not stated) was 3.52 µM; that for `CCN(CC)c1ccc(S(=O)(=O)Nc2cc(Cl)ccc2Cl)cc1NC(=S)NC(=O)C1CCCC1` was 2.06 µM. Take `CCN(Cc1ccccc1)c1ccc(/C=N/NC(=S)NC(C)C)cc1`: the AC50 is 4.6 µM. The value for `COc1ccc(/C=N/NC(=O)c2cc(C34CC5CC(CC(C5)C3)C4)[nH]n2)cc1O` was 1.8 µM; that for `CN(C)/N=C/C=C1\CCC/C(=C\c2ccc(F)c(F)c2)C1=O` was 10.5 µM.

As to `COc1ccc(OC)c(-c2cc(-c3cccnc3)nc(N)c2C#N)c1`, the AC50 is 1.95 µM. With `CN(C)C(CNS(=O)(=O)c1ccc2ccccc2c1)c1ccccc1` (configuration not stated), the AC50 was > 19.5 µM (inactive).

As for `CCOC(=O)/C(C#N)=C1\Nc2ccccc2N=C1N(CC(C)C)CC(C)C`, the AC50 is 8.73 µM. For `COc1ccc(CCC(C)NCC2CCCCC2)cc1` (configuration not stated), the AC50 was 1.66 µM. Take `CCc1ccc(N=Nc2ccc(O)c3[nH]cnc23)cc1`: the AC50 is 2.06 µM. Turning to `Cc1ccc(C(=O)Cn2nnc3c(sc4nc5c(c(-c6ccccc6)c43)CCC5)c2=O)cc1`, the AC50 was 0.687 µM. With `COc1ccc(OC)c(-c2csc(N(CC3CCCO3)C(=O)C3CCCCC3)n2)c1` (configuration not stated), the AC50 is 7.05 µM. The value for `Cc1cccc(NC(=O)c2nc[nH]c2C(=O)N[C@H](C)c2ccccc2)c1` was 7.13 µM; that for `CCCCN=C(NNc1ccc(Br)cc1)C(=O)OCC` was 3.99 µM; that for `CCOC(=O)C(=Cc1ccc(-n2cncn2)cc1)C(=O)OCC` was 6.4 µM. The value for `CN1CC(c2ccccc2)C2(SC(=S)N(Cc3ccco3)C2=O)C12C(=O)Nc1ccccc12` (configuration not stated) was 7.31 µM; that for `O=C(CCSc1ccc(Cl)cc1)N1CCN(c2ccc(O)cc2)CC1` was 1.48 µM; that for `Cc1nc(NC(=O)c2ccco2)sc1-c1csc(Nc2ccc(Cl)cc2)n1` was 2.54 µM. The value for `CC1=NOC(=O)/C1=C\c1ccc(-c2cc(Cl)ccc2Cl)o1` was 1.06 µM; that for `O=C(/C=C/c1ccncc1)c1ccc(NC(=O)c2ccccc2F)cc1` was 4.38 µM. As for `CCCCn1c(C2CCCCC2)nc2cc3[nH]c(=O)c(C(C)C)nc3cc21`, the AC50 was 1.52 µM. The value for `Cc1cc(C)c2nc(N3CCCC(C(=O)N4CCN(c5ncccn5)CC4)C3)sc2c1` (configuration not stated) was 11.2 µM; that for `Cc1cccc(N=N/C(=C\O)C(=O)c2cccs2)c1` was 6.25 µM. The value for `CCCCOc1ccc(C(=O)Nc2ccc3c(c2)OCO3)cc1` was 3.66 µM; that for `COc1ccc(-c2cc([C@H]3[C@@H]4C=CCC[C@@]4(C)C(=O)N3Cc3ccccc3)ccc2F)cc1` was 6.8 µM; that for `Cc1ccc(C)c(NC(=O)c2ccccc2NS(=O)(=O)c2cc([N+](=O)[O-])ccc2C)c1` was 4.27 µM. For the molecule `COc1ccc(C(=O)C2CCCN(C3CSCCSC3)C2)c(OC)c1` (configuration not stated), the AC50 was 4.74 µM. Regarding `COCC(C)NC(=O)NC1(C(F)(F)F)Oc2ccc(Cl)cc2O1` (configuration not stated), the AC50 was 18.3 µM. As for `COC(=O)C(Cc1ccc(N(CCCl)CCCl)cc1)N=Cc1ccccc1O` (configuration not stated), the figure is 2.54 µM; as for `Cc1ccc(Cl)cc1NC(=S)N/N=C/c1cccc2ccccc12`, 0.298 µM; as for `Cc1cccc(-c2cc3nc4c(c(NCc5ccco5)n3n2)CCCC4)c1`, 7.25 µM.

`COC(=O)[C@@H]1C[C@]2(OC(=O)c3ccccc3)C=CC(=O)C[C@@H]2N1C(=O)OCc1ccccc1`: the AC50 is 7.87 µM. For `C[C@]12CC[C@H]3[C@@H](CC[C@]4(O)C[C@@H](O)CC[C@]34C=O)[C@@]1(O)CC[C@@H]2C1=CC(=O)OC1`, the AC50 was 0.446 µM. The value for `Cc1cc(C)c2nc(NNC(=O)c3cc(-c4cccs4)nc4ccccc34)sc2c1` was 2.95 µM.

For the molecule `COc1ccc(/C=N/OCC(=O)N2CC3(C)CC2CC(C)(C)C3)cc1` (configuration not stated), the half-maximal activity concentration (AC50) was 14.3 µM. The value for `Oc1ccc(N=Nc2nc(-c3ccccc3)c(-c3ccccc3)[nH]2)cc1` was 4.53 µM; that for `COc1ccc(C2=NN(c3nc4ccccc4s3)C(=O)C2)cc1` was 4.7 µM. Regarding `CC(=O)N(C)c1ccc(OCC(O)Cn2c3ccc(Cl)cc3c3cc(Cl)ccc32)cc1` (configuration not stated), the AC50 is 1.65 µM. The value for `CN(CC(=O)Nc1ccc(Cl)c(Cl)c1)C(=O)C12CC3CC(CC(C3)C1)C2` was 6.2 µM; that for `Cc1cc(N/N=C/c2ccccc2Cl)nc(NCc2ccccc2)n1` was 4.04 µM; that for `CCOc1cc(N2CCOCC2)c(OCC)cc1NC(=O)CN1CCC(Cc2ccccc2)CC1` was 2.43 µM. As for `CN(/N=C/c1cc(Br)cc(Br)c1O)c1cccc(C(F)(F)F)n1`, the figure is 12.7 µM. The value for `O=C(Nc1ccn(Cc2ccccc2F)n1)c1ccc(COc2ccccc2Cl)cc1` was 3.52 µM.
